Data reported in publication PMC11980376, “Lactate dehydrogenase is the Achilles’ heel of Lyme disease bacterium Borreliella burgdorferi” (mBio, 2025).
pKi: −log10 of the molar value.

Key:
BbLDH [1] = target: T1, BbLDH (Borreliella burgdorferi, UniProt O51114); assay: Enzyme kinetics of inhibition with varying pyruvate as substrate, 0–100 µM inhibitor; format: biochemical; details: for type of inhibition for pyruvate substrate (Lineweaver–Burk plots): Fig. S7
T1 construct: we expressed and purified a full-length N-terminal His- and FLAG-tagged BB_0087 recombinant protein (rBB_0087); 10xHis (N); FLAG (N); made in house; host or cells: E. coli Rosetta-gami 2 (DE3)
T1 sequence (O51114 whole entry): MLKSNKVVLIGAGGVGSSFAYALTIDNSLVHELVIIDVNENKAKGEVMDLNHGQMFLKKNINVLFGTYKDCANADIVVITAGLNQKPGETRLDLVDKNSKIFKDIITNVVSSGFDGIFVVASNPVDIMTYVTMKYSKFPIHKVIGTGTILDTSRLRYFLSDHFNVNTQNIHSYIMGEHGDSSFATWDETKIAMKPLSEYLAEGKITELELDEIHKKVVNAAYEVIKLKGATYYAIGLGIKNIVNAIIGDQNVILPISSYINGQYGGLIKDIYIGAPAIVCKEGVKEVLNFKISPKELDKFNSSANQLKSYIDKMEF
Protocol: The inhibitory effect of gossypol and the four lead inhibitors of BbLDH was performed using 0–100 µM of inhibitors or an equal volume of DMSO vehicle in 50 mM Tris-HCl buffer (pH 7.0) containing 100 ng of BbLDH, 0.5 mM NADH, 2.4 mM pyruvate, and 3 mM FBP at 37°C. All experiments were repeated at least twice. The amount of NADH produced or consumed was extrapolated from the NADH standard curve and plotted in GraphPad Prism 10 (GraphPad Software, La Jolla, CA, USA) using Allosteric Sigmoidal mode to obtain the Vmax and Km values. Lineweaver–Burk plots were generated using the mean reciprocal values of substrates and velocities obtained from the inhibition studies.

B. burgdorferi = assay: In vitro growth analysis of wild-type B. burgdorferi with inhibitors, Petroff-Hausser counting; format: cell-based, Borreliella burgdorferi; details: 0–300 µM tested, BSK-II medium, 34°C
Protocol: To measure the growth of the WT B31 A3-68 and 87^mut, 87^mut was first cultivated in the presence of 1 mM IPTG until the stationary phase along with the WT. Cells were harvested via centrifugation and washed with PBS to remove all traces of IPTG. A concentration of 1 × 10^5 cells/mL of WT or 87^mut were inoculated into 10 mL of fresh BSK-II and incubated at 34°C with or without 1 mM IPTG. Bacterial cells were enumerated daily until the cells entered the stationary growth phase (~1 × 10^8 cells/mL) using a Petroff-Hausser counting chamber, as previously described ([100]). At the end of the growth study, cultures were harvested for immunoblot analysis to detect the expression of BbLDH. Growth analyses were repeated in triplicates, and the results were expressed as the means ± standard errors of the means (SEM). To determine the growth inhibition of LDH inhibitors on B. burgdorferi, 10^5 cells/mL of stationary WT cultures were inoculated into a fresh 5 mL BSK-II medium containing the specified concentration of inhibitors. Equal volumes of DMSO were included as negative controls to rule out the inhibitory effect of DMSO on the growth of B. burgdorferi. Cells were maintained at 34°C with a 3.4% CO2 incubator, and cell numbers were enumerated every 2 days until the cells reached the stationary growth phase using the Petroff-Hausser counting chamber.

BbLDH [2] = target: T1, BbLDH; assay: Enzyme kinetics of inhibition, lactate to pyruvate reaction, NADH read at OD340; format: biochemical; details: Fig. 1F
Protocol: The enzyme kinetics of BbLDH, with substrates pyruvate or lactate, was monitored by the reduction or oxidation of NADH at OD340 as previously described ([92]) using a Varioskan LUX multimode microplate reader (Thermo Fisher Scientific, Rockford, IL) with minor modifications. Briefly, the conversion of pyruvate to lactate activity was performed at 37°C in 50 mM Tris-HCl buffer pH 7.0 containing 100 ng of BbLDH, 0.5 mM NADH, 2.4 mM pyruvate and with/without 3 mM FBP. The conversion of lactate to pyruvate activity was measured at 37°C in sodium bicarbonate buffer (pH 7.0) containing 100 ng of BbLDH, 1 mM NAD^+, 0–300 mM sodium L-lactate, with/without 3 mM FBP. The kinetic parameters of BbLDH were determined using 0–6.0 mM pyruvate, 0–1.0 mM NADH, 0–2.0 mM NAD^+, 50 mM Tris-HCl buffer, pH 5.0–10.0, or reaction temperature of 25°C, 30°C, and 37°C. All reactions were performed in 96-well plates with a final volume of 200 µL per well.
All experiments were repeated at least twice. The amount of NADH produced or consumed was extrapolated from the NADH standard curve and plotted in GraphPad Prism 10 (GraphPad Software, La Jolla, CA, USA) using Allosteric Sigmoidal mode to obtain the Vmax and Km values. Lineweaver–Burk plots were generated using the mean reciprocal values of substrates and velocities obtained from the inhibition studies.

BB_0087 (BbLDH) = target: T2, BB_0087 (BbLDH) (Borreliella burgdorferi, UniProt O51114); assay: Lactate dehydrogenase activity assay kit, NADH generation from lactate by recombinant BB_0087; format: biochemical; details: 100 µM gossypol; 50 ng purified recombinant protein
T2 construct: we expressed and purified a full-length N-terminal His- and FLAG-tagged BB_0087 recombinant protein (rBB_0087); 10xHis (N); FLAG (N); made in house; host or cells: E. coli Rosetta-gami 2 (DE3)
T2 sequence (O51114 whole entry): as above
Protocol: To establish the LDH activity of BbLDH, we first used a commercial lactate dehydrogenase activity assay kit (Sigma Aldrich, St. Louis, MO) to measure the ability of BbLDH to reduce NAD to NADH following the manufacturer’s instruction. Commercial LDH inhibitor gossypol (catalog # G8761, Sigma Aldrich) was dissolved in DMSO at a stock concentration of 100 mM. A concentration of 1 µg/µL of recombinant wild-type or H178A BbLDH stocks was diluted 1:20 in the LDH assay buffer to a final working volume of 400 µL per well. A 100 µM of gossypol or DMSO was added to selected wild-type BbLDH wells to determine the inhibitory effect of gossypol on BbLDH activity. Reactions were set up in triplicate wells along with NADH standards. The LDH activity was calculated using the formulation provided by the manufacturer.

HeLa cells = assay: Cell viability, crystal violet assay, 72 h; format: cell-based, human
Protocol: (§1) Immortalized cervical carcinoma cells (HeLa) and TIGKs were purchased from ATCC. HeLa cells were cultured and maintained in Dulbecco’s Modified Eagle Medium with high glucose and supplemented with 10% FBS and 100 µg/mL of penicillin and streptomycin. TIGK cells were cultured in a serum-free keratinocyte growth medium (KGM; Lifeline Cell Technology, MD) as described previously ([56]). Cells were incubated at 37°C, 5% CO2 incubator.
(§2) To determine the toxicity of LDH inhibitors on eukaryotic cells, HeLa and TIGK cells were seeded onto a 96-well plate at 10^4 cells per well the day before drug treatment. Cell culture media were removed the next day and replaced with culture media containing the specified concentration of DMSO, gossypol, 45923, or 350085. Mock-treated wells were included for cell viability normalization purposes. Cells were incubated with inhibitors for 72 h. To determine the cell viability, the crystal violet assay was used as described ([57]). Briefly, cell culture media were decanted from the 96-well plate and washed once with water. A volume of 50 µL of 0.5% crystal violet staining solution (0.5 g crystal violet powder, 80 mL ddH2O, 20 mL methanol) were incubated for 20 min at room temperature (RT) with gentle shaking. Plates were washed 4–5 times by soaking in ddH2O followed by gentle tapping to remove any remaining liquid. Plates were air-dried at RT. A 200 µL of methanol was added to each well. The resulting plates were incubated for 20 min at RT with gentle shaking followed by optical density measurement at 570 nm (OD570) using a Varioskan LUX multimode microplate reader (Thermo Fisher Scientific). The OD570 of mock cells was set to 100% and the percentage of viable cells treated with inhibitors was determined by comparing the average OD570 values of treated wells to mock wells. The experiment was performed in triplicate wells with two technical replicates and two biological replicates. Two-way analysis of variance was used for statistical analysis with significant values of P < 0.05.

[3] = system: telomerase immortalized gingival keratinocytes (TIGKs); assay: Cell viability, crystal violet assay, 72 h; format: cell-based, human
Protocol: as §1, §2

BbLDH [4] = target: T1, BbLDH; assay: Small compound library screening (Natural Products Set IV) for inhibition of BbLDH activity; format: biochemical; details: Extended Data Fig. 7A
Protocol: To identify potential novel LDH inhibitors against BbLDH, the Natural Products Set IV library containing 419 natural compounds selected from the DTP Open Repository collection was obtained from the National Cancer Institute (NCI). All compounds were dissolved in DMSO to a working stock solution of 10 mM. Primary screening was performed using a label-free HTS protocol ([54]) in 384-well plates. Buffer B (20 mM Tris pH 7.4, 0.005% Triton X-100, 0.005% BGG, 2 mM DTT) containing 10 nM BbLDH, 75 µM pyruvate, and 50 µM NADH was dispensed into each well containing pre-dispensed inhibitors to a final concentration of 10 µM in 50 µL working volume per well. Fluorescence was measured using an excitation wavelength of 340 nm and an emission wavelength of 482 nm. Readings were recorded every second over a total duration of 5 min. Gossypol and DMSO were included as positive and negative controls, respectively. Fluorescent signals were plotted over time for each compound and analyzed using linear regression to determine the slope of reduction compared to DMSO and gossypol. Twenty-three compounds with a reduced slope in comparison to DMSO were selected for a second round of screening.
For the secondary screening, a lactate dehydrogenase activity assay kit (Sigma Aldrich) was used to determine the inhibitory effect of selected small compounds on BbLDH activity. Reactions were performed following the manufacturer’s protocol using 10 and 25 µM of small compounds and 10 nM BbLDH per well. Gossypol and DMSO were included as positive and negative controls, respectively. Compounds that reduced the LDH activity of BbLDH compared to DMSO treatment wells were selected for further analysis.

Structure (SMILES) | pKi (BbLDH [1]) | type of inhibition for pyruvate substrate (Lineweaver–Burk plots) (BbLDH [1]) | concentration at which inhibitory effect on growth was observed (B. burgdorferi) [µM] | pKi (BbLDH [2]) | LDH activity of BB_0087 (NADH generated from lactate) upon treatment (BB_0087 (BbLDH)) | pKi (BbLDH [1]; varying pyruvate as substrate, 0.5 mM NADH, 3 mM FBP, pH 7.0, 37°C, Fig. 5, read-out: Ki) | concentration at which growth inhibition of HeLa cells begins (HeLa cells) [µM] | concentration at which toxicity to TIGKs begins ([3]; human) [µM] | reduction in LDH activity (hit cutoff) (BbLDH [4]) [%] | concentration at which toxicity to TIGKs begins ([3]; crystal violet, non-cancerous cell line) [µM]
Cc1cc2c(C(C)C)c(O)c(O)c(C=O)c2c(O)c1-c1c(C)cc2c(C(C)C)c(O)c(O)c(C=O)c2c1O [gossypol] | 4.44 | uncompetitive inhibition | 100 | 4.89 | completely abolished |  |  |  |  | 
CCC(C)(O)C(=O)OC1C(=O)OC2CC3C(C)=CC(O)C(O)C3(C)C3C4(O)OCC23C1C(C)C4O (stereo not drawn) [compound 14975] | 4.18 | competitive inhibitors |  |  |  |  |  |  |  | 
COc1c2occc2cc2ccc(=O)oc12 [compound 45923, Methoxsalen] |  | competitive inhibitors | 100 |  |  | 4.27 | 10 | > 50 | ≥ 75 | 
COc1ccc2c(c1)O[C@H]1c3ccc(O)cc3OC[C@@H]21 (stereo in doubt) [compound 350085, Medicarpin] | 3.69 | competitive inhibitors |  |  |  |  | 5 |  | ≥ 75 | 20
CCC(C)c1occ2c(O)c(C(=O)O)c(=O)cc-2c1C (stereo not drawn) [compound 114344] | 3.46 | competitive inhibitors |  |  |  |  |  |  | ≥ 75 | 
